The target in one assay is T1, NEK2 (Homo sapiens, UniProt P51955).
T1 construct: expressed in transfected cells; host or cells: HEK293
T1 sequence (P51955 1-445): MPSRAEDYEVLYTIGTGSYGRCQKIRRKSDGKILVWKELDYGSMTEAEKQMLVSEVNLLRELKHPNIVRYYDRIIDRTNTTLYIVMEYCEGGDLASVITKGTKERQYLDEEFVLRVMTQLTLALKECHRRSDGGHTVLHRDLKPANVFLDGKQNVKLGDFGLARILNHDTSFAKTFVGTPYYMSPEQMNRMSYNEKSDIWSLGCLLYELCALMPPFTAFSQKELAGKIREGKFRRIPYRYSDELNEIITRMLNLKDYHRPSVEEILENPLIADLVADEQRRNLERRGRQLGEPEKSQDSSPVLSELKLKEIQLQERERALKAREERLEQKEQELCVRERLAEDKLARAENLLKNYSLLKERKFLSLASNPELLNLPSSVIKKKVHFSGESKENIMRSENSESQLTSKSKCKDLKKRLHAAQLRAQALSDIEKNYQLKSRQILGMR
Description: NanoBRET Target Engagement Intracellular Kinase Assay for NEK2 in transfected HEK293 cells. The format is cell-based. How it is done:
In this example, the compounds described herein were tested for their inhibitory activity against NEK2 using a model of in vivo activity by the NanoBRET™ Target Engagement Intracellular Kinase Assay (Reaction Biology Corp.). The assay was performed according to the manufacturer's protocol, as detailed below.
HEK293 cells were cultivated (70-80% confluence) prior to the assay. The sample was trypsinized and HEK293 cells were collected.
To prepare lipid: DNA complexes, a 10 μg/ml solution of DNA in Opti-MEM without serum was prepared that consisted of the following ratios of carrier DNA and DNA encoding NanoLuc® fusion: 9.0 μg/ml of Transfection Carrier DNA, 1.0 μg/ml of NanoLuc fusion vector DNA and 1 ml of Opti-MEM without phenol red. The solution was mixed thoroughly. 30 μl of FuGENE HD Transfection Reagent was added into each milliliter of DNA mixture to form lipid: DNA complex. The sample was mixed by inversion 10 times and then incubated at ambient temperature for 20 minutes to allow complexes to form. In a sterile, conical tube, 1 part of lipid:DNA complex was mixed with 20 parts of HEK293 cells in suspension. The resulting sample was mixed gently by inversion 5 times. The cell and lipid: DNA complex was dispensed into a sterile tissue culture dish and incubated for 22-24 hours.
Each test compound is delivered from the compound source plate to the wells of 384-well white NBS plate by Echo 550.
Step 3. Preparation of Cells with NanoBRET™ Tracer K5 Reagent:
The medium was removed from the dish with the transfected HEK293 cells via aspiration, trypsinized and cells were allowed to dissociate from the dish. Trypsin was neutralized using medium containing serum and centrifuged at 200×g for 5 minutes to pellet the cells. The cell density was adjusted to 2×10^5 cells/ml in Opti-MEM without phenol red.
The Complete 20× NanoBRET™ Tracer K5 Reagent with Tracer Dilution Buffer was prepared according to the manufacturer's instructions. One part of Complete 20× NanoBRET™ Tracer Reagent was added to 20 parts of cells in the tube. The sample was mixed gently by inversion 10 times. Next, the cell suspension was dispensed into white, 384-well NBS plates with a final tracer K5 concentration of 2 μM. The plate was incubated at 37° C., 5% CO2 for 1 hour. A separate set of samples without tracer were prepared for background correction steps.
The plate was removed from the incubator and equilibrated to room temperature for 15 minutes. The 3× Complete Substrate plus Inhibitor Solution in Assay Medium (Opti-MEMR I Reduced Serum Medium, no phenol red) was prepared just before measuring BRET. The 3× Complete Substrate plus Inhibitor Solution was added to each well of the 384-well plate and incubated for 2-3 minutes at room temperature. The donor emission wavelength (460 nm) and acceptor emission wavelength (600 nm) were measured using the Envision 2104 plate reader.
To generate raw BRET ratio values, the acceptor emission value (600 nm) was divided by the donor emission value (460 nm) for each sample. To correct for background, the BRET ratio in the absence of tracer (average of no-tracer control samples) was subtracted from the BRET ratio of each sample.
BRET Ratio=[(Acceptor sample÷Donor sample)−(Acceptor no-tracer control÷Donor no-tracer control)]

For assay [1], the target named is T2, Aurora A kinase (Accession No. NP-940839) (Homo sapiens, UniProt O14965).
T2 construct: purchased ThermoFisher Scientific (Invitrogen)
T2 sequence (O14965 1-403): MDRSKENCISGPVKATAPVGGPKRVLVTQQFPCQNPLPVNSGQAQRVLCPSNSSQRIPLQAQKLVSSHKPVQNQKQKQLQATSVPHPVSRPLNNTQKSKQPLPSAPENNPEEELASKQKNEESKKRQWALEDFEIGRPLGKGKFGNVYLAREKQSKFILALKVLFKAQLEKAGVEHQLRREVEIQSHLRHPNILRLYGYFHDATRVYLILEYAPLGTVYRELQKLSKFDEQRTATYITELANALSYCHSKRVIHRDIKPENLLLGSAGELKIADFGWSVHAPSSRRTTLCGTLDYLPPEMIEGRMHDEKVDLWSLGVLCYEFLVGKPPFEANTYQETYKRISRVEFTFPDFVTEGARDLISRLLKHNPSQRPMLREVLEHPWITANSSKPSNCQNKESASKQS
In words: HotSpot Kinase Assay, Aurora A. The assay is classed as biochemical. On the procedure: (§1) In this example, the compounds described herein were tested for their inhibitory activity against NEK2 and/or Aurora A using the HotSpot™ Kinase Assay (Reaction Biology Corp.). The assay was performed according to the manufacturer's protocol, as detailed below. The NEK2 kinase (Accession No. NP-002488) and Aurora A kinase (Accession No. NP-940839) for use in these assays was sourced from ThermoFisher Scientific (Invitrogen).
(§2) The base Reaction Buffer used in this experiment contained the following: 20 mM Hepes (pH 7.5), 10 mM MgCl2, 1 mM EGTA, 0.02% Brij™-35, 0.02 mg/ml BSA, 0.1 mM Na3VO4, 2 mM DTT, and 1% DMSO. The required cofactors were added individually to each kinase reaction.
(§3) Testing compounds were dissolved in 100% DMSO to a specific concentration. The serial dilution was conducted by Integra Viaflo Assist in DMSO.
(§4) The substrate was prepared in freshly prepared Reaction Buffer. The required cofactors were delivered to the substrate solution described above. NEK2 kinase or Aurora A kinase was delivered to the substrate solution and gently mixed. Next, the compounds in 100% DMSO were transferred to the kinase reaction mixture by Acoustic technology (Echo550; nanoliter range) and incubated for 20 min at room temperature. ^33P-ATP (Specific activity 10 μCi/μl) was delivered into the reaction mixture to initiate the reaction. The reaction was incubated for 2 hours at room temperature. Radioactivity was then detected by the filter-binding method. Kinase activity data were expressed as the percent remaining kinase activity in test samples compared to vehicle (dimethyl sulfoxide) reactions. IC50 values and curve fits were obtained using Prism (GraphPad Software).

The target of assay [2] is T3, NEK2 kinase (Accession No. NP-002488) (Homo sapiens, UniProt P51955).
T3 construct: purchased ThermoFisher Scientific (Invitrogen)
T3 sequence (P51955 1-445): T1 sequence (P51955 1-445)
Description: HotSpot Kinase Assay, NEK2. The assay is classed as biochemical. How it is done: as §1, §2, §3, §4

In another assay the test system is EZH2 expression. In words: Flow cytometry analysis for EZH2 expression in SW480 cells. The format is cell-based. The note with it: Homo sapiens, 24 hours treatment, 0-1000 nM, haploid and diploid cells, read-out: dose dependent decrease in EZH2 expression, IC50. On the procedure: (§5) Reagents. MDA-MB-231 (Breast adenocarcinoma, triple negative breast cancer) and SW480 (colorectal adenocarcinoma, stem-like subtype) cells were purchased from ATCC and cultured as per manufacturer's instruction. Thymidine (Sigma, T9250) stock solution (100 mM) was prepared in PBS. 2′-Deoxycytidine (Sigma, D897) stock solution (240 mM) was prepared in distilled H2O. Nocodazole (Selleck Chemicals, S2775) stock solution (5 mg/mL) was made in dimethyl sulfoxide (DMSO). FxCycle Far Red stain (F10348) for cell cycle analysis was purchased from Thermo Fisher Scientific.
Antibodies. Polyclonal antibodies to phosphorylated-Ser55 Hec1 (PA5-85846; 1:1000) were purchased from ThermoFisher Scientific, and Phospho-Thr320 PP1α (2581S; 1:1000) and Total PP1α (2582S; 1:1000) were purchased from Cell Signaling Technologies. Monoclonal antibodies to Phospho-Ser10 Histone H3 (53348S; 1:1000), Total Histone H3 (14269; 1:5000), and EZH2-FITC (30233, 1:50) antibodies were purchased from Cell Signaling Technologies; Total Hec1 (ab109496; 1:10000) was purchased from Abcam; and Total NEK2 (sc-55601; 1:200) and GAPDH (sc-365062; 1:1000-2000) antibodies were purchased from Santa Cruz Technologies.
Flow Cytometry Analysis. […] A minimum of 100,000 events were analyzed in each sample, and the results were evaluated using FlowJo software. […]
(Flow cytometry measures light scatter and fluorescence of single cells or particles in a stream.)

For another assay, the system named is SW480 cells. Description: Cell cycle analysis in SW480 cells by flow cytometry. The assay is classed as cell-based. The note with it: 24-hour treatment. How it is done:
as §5
Flow Cytometry Analysis. The SW480 cells were treated with NEK2 inhibitors at a concentration ranging from 0-1000 nM for 24 hours. After 24 hours of treatment, cells were detached and dissociated using 0.25% trypsin. After trypsinization, cells were washed with ice-cold PBS and fixed in 4% paraformaldehyde (PFA) at room temperature for 20 minutes. After fixation, cells were permeabilized by incubating in 90% methanol for 30 minutes on ice. Subsequently, cells were stained with FITC conjugated anti-EZH2 antibody (1:50, Cell Signaling technology) for 2 hours at room temperature and FxCycle Far Red stain (Thermo Fisher Scientific) for visualization of EZH2 expression and cell cycle, respectively. […] A minimum of 100,000 events were analyzed in each sample, and the results were evaluated using FlowJo software. […]

[3] abbreviates: NEK2 target engagement, read-out: NanoBRET IC50.
Setting [4] is: HotSpot Kinase Assay, read-out: Aurora A IC50.
[5] abbreviates: HotSpot Kinase Assay, read-out: NEK2 IC50.
[6] abbreviates: comparator compounds, read-out: Aurora A Activity.
Where [7] appears, read: comparator compounds, read-out: NEK2 Activity HotSpot Assay.

This is an account of results in patent US20230090742A1, “AMINOPYRIMIDINYLAMINOBENZONITRILE DERIVATIVES AS NEK2 INHIBITORS” (Sumitomo Pharma Oncology, Inc., priority 2020, published 2023).

Read-outs that look alike come from different tables or passages of the source. A value given as a limit tells only on which side of the number the result lay.

As to `N#Cc1c(Nc2nc(Nc3ccc(N4CCOCC4)cc3)ncc2Cl)cccc1OCc1ccccc1F` [Compound 2, 2-((5-chloro-2-((4-morpholinophenyl)amino)pyrimidin-4-yl)amino)-6-((2-fluorobenzyl)oxy)benzonitrile], the IC50 is greater than 150 nM on NEK2 (setting [3]), greater than 1000 nM in assay [1] (setting [4]) and no more than 5 nM in assay [2] (setting [5]).
Turning to `CN1CCN(Cc2ccc(Nc3ncc(Cl)c(Nc4ccc(C#N)c(OCc5ccccc5F)c4)n3)cc2)CC1` [CF-01, 4-((5-chloro-2-((4-((4-methylpiperazin-1-yl)methyl)phenyl)-amino)-pyrimidin-4-yl)amino)-2-((2-fluorobenzyl)-oxy)benzonitrile, reference compound], the IC50 at NEK2 (comparator compounds, read-out: NEK2 Activity NanoBRET assay) is 264 nM; in assay [1] (setting [6]), 796 nM; in assay [2] (setting [7]) it was greater than 1000 nM.
As to `CN1CCN(c2ccc(Nc3ncc(Cl)c(Nc4ccc(C#N)c(OCc5ccccc5F)c4)n3)cc2)CC1` [CF-02, 4-((5-chloro-2-((4-(4-methylpiperazin-1-yl)phenyl)-amino)-pyrimidin-4-yl)amino)-2-((2-fluorobenzyl)-oxy)benzonitrile, reference compound], the results for the IC50 in assay [1] (setting [6]) and in assay [2] (setting [7]) were 313 nM and 264 nM, respectively.
As to `CN1CCN(c2ccc(Nc3ncc(Cl)c(Nc4ccc(C(N)=O)c(OCc5ccccc5F)c4)n3)cc2)CC1` [CF-03, 4-((5-chloro-2-((4-(4-methylpiperazin-1-yl)phenyl)amino)-pyrimidin-4-yl)-amino)-2-((2-fluorobenzyl)oxy)benzamide, reference compound], in assay [1] (setting [6]), the IC50 stood at 0.1 nM.
In the case of `COc1cnc(Nc2ccc(N3CCNCC3)cc2)nc1Nc1cccc(OCc2ccccc2F)c1C#N` [Compound 10, 2-((2-fluorobenzyl)oxy)-6-((5-methoxy-2-((4-(piperazin-1-yl)phenyl)amino)pyrimidin-4-yl)amino)benzonitrile], the IC50 is 50 to 150 nM on NEK2 (setting [3]), greater than 1000 nM in assay [1] (setting [4]) and no more than 5 nM in assay [2] (setting [5]).
With `CN(C)CCn1cc(Nc2ncc(Cl)c(Nc3cccc(OCc4ccccc4F)c3C#N)n2)cn1` [Compound 32, 2-((5-chloro-2-((1-(2-(dimethylamino)ethyl)-1H-pyrazol-4-yl)amino)pyrimidin-4-yl)amino)-6-((2-fluorobenzyl)oxy)benzonitrile], the IC50 in assay [1] (setting [4]) is greater than 1000 nM; in assay [2] (setting [5]), greater than 15 nM.
As to `Cc1cnc(Nc2ccc(N3CCNCC3)cc2)nc1Nc1cccc(OCc2ccccc2F)c1C#N` [Compound 12, 2-((2-fluorobenzyl)oxy)-6-((5-methyl-2-((4-(piperazin-1-yl)phenyl)amino)pyrimidin-4-yl)amino)benzonitrile], the IC50 at NEK2 (setting [3]) is no more than 50 nM; in assay [2] (setting [5]), no more than 5 nM; in the assay on EZH2 expression, 214 nM.
In the case of `O=C(O)[C@]1(Cc2cccc(Nc3nccs3)n2)CC[C@@H](Oc2cccc(Cl)c2F)CC1` [MK-5108], the cell cycle distribution entry in the assay with SW480 cells is “significantly arrested cells in G2-M phase”.
Still for that read-out and setting: for `CCN(CCCOc1ccc2c(Nc3cc(CC(=O)Nc4cccc(F)c4)n[nH]3)ncnc2c1)CCOP(=O)(O)O` [AZD-1152] the value was “significantly arrested cells in G2-M phase”.
